Experimental findings from patent US10261079B2, “Method for determining kinetic profiles in drug discovery” (priority 2015, dated 2019) are described below.

Assay [1] concerns the target T1, PI3Kdelta (Homo sapiens, UniProt O00329).
T1 construct: purchased Carna Biosciences
Briefly: TR-FRET kinetic competitive binding, Binding Kinetic Profiling mode. Conditions: Tracer 314 5 nM, compound 250 nM to 0. In general terms: Time-resolved FRET reads energy transfer from a long-lived donor to a nearby acceptor.
Description: X is time, expressed in min.
The present example illustrates the kinetic characterization of two different inhibitors against the same target by using the platform of the invention in the Binding Kinetic Profiling mode. […] The characterized Tracer^314 (Life Technologies) has been used as labeled ligand (tracer).
In order to determine the kinetic profile of these inhibitors (Kon, Koff, Kd and t1/2), experimental data were fitted to the “Kinetics of competitive binding”. This model describes the kinetic behavior of two compounds when compete for the binding to the same target.
The experiment is performed as described in Example 1 for the tracer characterization. The samples are prepared in the kinase buffer A at the same concentrations described in example 1 (PI3Kdelta at 0.5 nM and Eu-antiGST antibody at 2 nM). Control wells in the microplate with PI-103 inhibitor at 10 μM are also included to account for unspecific binding. […] These serial dilutions were prepared in a mother plate (at 2 times the assay concentration) and quickly dispensed to the analysis plate, being the last one disposed in the well the kinase PI3Kdelta.
The tracer concentration (L) is also constrained to the tracer concentration employed in the assay, i.e., 5 nM in the present example. […] The term t1/2 is calculated as −ln[0.5] divided by the K4 value.

Assay [2] addresses CDK8/Cyclin C (Homo sapiens, UniProt P49336). The experiment in a line: TR-FRET kinetic competitive binding, Kinetic Selectivity Profiling mode. The settings on record: Tracer 236 10 nM, kinase 2 nM.
Description: SQRT is the mathematical abbreviation for squared root. X is time, expressed in min.

T1 sequence (O00329 whole entry): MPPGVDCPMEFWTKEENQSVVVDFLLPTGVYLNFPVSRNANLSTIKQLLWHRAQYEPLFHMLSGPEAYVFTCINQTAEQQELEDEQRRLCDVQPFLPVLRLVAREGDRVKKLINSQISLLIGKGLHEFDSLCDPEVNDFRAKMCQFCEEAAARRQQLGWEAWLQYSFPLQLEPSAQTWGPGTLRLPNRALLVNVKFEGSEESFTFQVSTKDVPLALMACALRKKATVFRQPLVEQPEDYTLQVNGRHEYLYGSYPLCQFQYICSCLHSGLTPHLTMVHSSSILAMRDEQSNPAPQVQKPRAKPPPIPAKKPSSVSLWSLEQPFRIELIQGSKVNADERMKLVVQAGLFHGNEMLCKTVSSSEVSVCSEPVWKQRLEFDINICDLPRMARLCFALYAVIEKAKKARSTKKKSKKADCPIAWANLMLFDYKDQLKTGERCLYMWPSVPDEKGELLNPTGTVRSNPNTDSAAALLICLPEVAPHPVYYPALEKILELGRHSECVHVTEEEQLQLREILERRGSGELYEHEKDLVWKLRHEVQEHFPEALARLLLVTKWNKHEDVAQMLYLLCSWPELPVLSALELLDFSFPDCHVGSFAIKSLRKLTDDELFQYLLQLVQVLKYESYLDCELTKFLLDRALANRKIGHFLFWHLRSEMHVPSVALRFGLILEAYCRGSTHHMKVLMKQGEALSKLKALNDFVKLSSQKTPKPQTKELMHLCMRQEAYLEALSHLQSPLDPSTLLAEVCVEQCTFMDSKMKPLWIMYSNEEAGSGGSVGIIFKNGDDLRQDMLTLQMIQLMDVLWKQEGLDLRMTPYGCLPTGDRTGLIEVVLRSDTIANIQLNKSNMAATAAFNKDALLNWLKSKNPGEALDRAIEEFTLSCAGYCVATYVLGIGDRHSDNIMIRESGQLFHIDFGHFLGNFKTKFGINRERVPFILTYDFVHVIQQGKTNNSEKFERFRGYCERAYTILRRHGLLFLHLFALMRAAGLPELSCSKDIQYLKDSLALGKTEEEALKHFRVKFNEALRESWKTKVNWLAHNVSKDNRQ
T1 sequence (P27986 whole entry partner): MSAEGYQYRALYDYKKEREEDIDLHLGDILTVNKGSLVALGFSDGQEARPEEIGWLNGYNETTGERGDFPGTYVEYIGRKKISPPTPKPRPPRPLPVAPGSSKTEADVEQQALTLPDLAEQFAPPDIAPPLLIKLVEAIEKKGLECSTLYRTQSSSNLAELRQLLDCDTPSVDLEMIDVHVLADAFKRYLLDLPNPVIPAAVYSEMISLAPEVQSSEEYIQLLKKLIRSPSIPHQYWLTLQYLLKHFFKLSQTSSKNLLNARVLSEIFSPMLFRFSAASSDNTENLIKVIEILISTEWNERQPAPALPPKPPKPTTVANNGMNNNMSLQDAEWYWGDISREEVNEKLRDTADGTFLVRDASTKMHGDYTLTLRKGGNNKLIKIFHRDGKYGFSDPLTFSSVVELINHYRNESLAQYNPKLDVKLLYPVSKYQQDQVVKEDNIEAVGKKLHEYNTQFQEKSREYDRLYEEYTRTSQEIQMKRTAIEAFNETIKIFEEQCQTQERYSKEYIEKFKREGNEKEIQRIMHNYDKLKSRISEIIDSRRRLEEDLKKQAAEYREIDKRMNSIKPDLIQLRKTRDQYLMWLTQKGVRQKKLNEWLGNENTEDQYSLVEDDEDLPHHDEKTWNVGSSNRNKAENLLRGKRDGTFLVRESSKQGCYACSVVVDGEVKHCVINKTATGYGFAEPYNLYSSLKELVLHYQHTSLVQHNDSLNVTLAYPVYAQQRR
CDK8/Cyclin C, sequence (P49336 whole entry, species assumed): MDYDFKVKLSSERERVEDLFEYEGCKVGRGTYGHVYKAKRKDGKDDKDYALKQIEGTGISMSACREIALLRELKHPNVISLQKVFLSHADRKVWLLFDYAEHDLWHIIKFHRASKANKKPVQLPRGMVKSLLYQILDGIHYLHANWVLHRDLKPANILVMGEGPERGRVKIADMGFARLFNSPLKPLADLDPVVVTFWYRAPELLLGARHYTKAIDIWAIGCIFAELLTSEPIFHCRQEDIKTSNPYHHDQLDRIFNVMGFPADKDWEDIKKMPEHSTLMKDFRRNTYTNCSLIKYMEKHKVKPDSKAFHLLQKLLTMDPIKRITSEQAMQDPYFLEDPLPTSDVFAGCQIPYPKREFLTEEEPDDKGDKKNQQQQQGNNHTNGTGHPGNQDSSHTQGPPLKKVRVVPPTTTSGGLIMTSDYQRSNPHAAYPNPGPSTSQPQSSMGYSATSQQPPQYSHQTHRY
CDK8/Cyclin C, sequence (P24863 whole entry partner, species assumed): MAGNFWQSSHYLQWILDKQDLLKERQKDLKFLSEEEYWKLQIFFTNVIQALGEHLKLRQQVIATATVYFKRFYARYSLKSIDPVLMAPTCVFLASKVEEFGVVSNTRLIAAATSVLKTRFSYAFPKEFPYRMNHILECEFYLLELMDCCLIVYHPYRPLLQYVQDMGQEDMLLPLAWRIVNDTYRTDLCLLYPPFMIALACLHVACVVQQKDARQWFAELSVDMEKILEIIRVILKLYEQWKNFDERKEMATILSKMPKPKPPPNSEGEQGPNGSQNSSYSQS

With `Cn1c(=O)n(-c2ccc(C(C)(C)C#N)cc2)c2c3cc(-c4cnc5ccccc5c4)ccc3ncc21` [BEZ235], in assay [1], the “dissociation from the target” value is “mili-seconds”.
As for `CN[C@@H]1C[C@H]2O[C@@](C)([C@@H]1OC)n1c3ccccc3c3c4c(c5c6ccccc6n2c5c31)C(=O)NC4` [Staurosporine], in assay [2], the “duration of the interaction with CDK8” value is 20 min.
For the molecule `COC[C@H]1OC(=O)c2coc3c2[C@@]1(C)C1=C(C3=O)[C@@H]2CCC(=O)[C@@]2(C)C[C@H]1OC(C)=O` [Wortmanine], the “dissociative half-life of the complex with PI3Kdelta (t1/2)” value in assay [1] is recorded as “around 300 min”.
